PubChem BioAssay (NCI)
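The compound was tested at five concentrations on cells cultured in 96-well plates, with a 48-hour exposure period. Abbreviation: GI50, concentration required for 50% inhibition of growth. TGI marks complete inhibition of growth.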

How the values were obtained:
Experiment in all cases: DTP human tumour cell line panel, 48 h
UACC-62 melanoma = tested on: UACC-62 melanoma
KM12 colon = tested on: KM12 colon
HL-60(TB) leukemia = tested on: HL-60(TB) leukemia
IGROV1 ovarian = tested on: IGROV1 ovarian
U251 CNS = tested on: U251 CNS
SW-620 colon = tested on: SW-620 colon
HCT-15 colon = tested on: HCT-15 colon
MALME-3M melanoma = tested on: MALME-3M melanoma
HOP-92 NSCLC = tested on: HOP-92 NSCLC
CAKI-1 renal = tested on: CAKI-1 renal

c1ccc2c(c1)CCc1cc3cc4c(nc3nc1-2)-c1ccccc1CC4
TGI (UACC-62 melanoma): > 100 µM | TGI (KM12 colon): > 100 µM | TGI (HL-60(TB) leukemia): > 100 µM | TGI (IGROV1 ovarian): > 100 µM | TGI (U251 CNS): > 100 µM | TGI (SW-620 colon): > 100 µM | TGI (HCT-15 colon): > 100 µM | TGI (MALME-3M melanoma): > 100 µM

O=c1[nH]nc(-c2ccccc2)n1/N=C/c1c(O)ccc2ccccc12
TGI (UACC-62 melanoma): > 100 µM | TGI (KM12 colon): > 100 µM | TGI (IGROV1 ovarian): > 100 µM | TGI (U251 CNS): 86.4 µM | TGI (SW-620 colon): > 100 µM | TGI (HOP-92 NSCLC): > 100 µM | TGI (HCT-15 colon): > 100 µM

C1CCC(OC2CSC2)OC1 (stereo not given)
TGI (KM12 colon): > 100 µM | TGI (U251 CNS): > 100 µM | TGI (SW-620 colon): > 100 µM | TGI (HOP-92 NSCLC): > 100 µM | TGI (HCT-15 colon): > 100 µM

O=S1(=O)c2ccccc2C(=NO)c2ccccc21
TGI (UACC-62 melanoma): > 100 µM | TGI (KM12 colon): > 100 µM | TGI (HL-60(TB) leukemia): 36.2 µM | TGI (IGROV1 ovarian): > 100 µM | TGI (U251 CNS): > 100 µM | TGI (SW-620 colon): > 100 µM | TGI (CAKI-1 renal): > 100 µM | TGI (HOP-92 NSCLC): > 100 µM | TGI (HCT-15 colon): > 100 µM

C=C(C)C(=O)[C@@]12C(=O)[C@@H](C)CC[C@H]1[C@H](C)C[C@@H]2C=C(C)C
TGI (UACC-62 melanoma): > 100 µM | TGI (KM12 colon): 56.4 µM | TGI (IGROV1 ovarian): 64.5 µM | TGI (U251 CNS): 49.6 µM | TGI (SW-620 colon): 44 µM | TGI (CAKI-1 renal): 99.5 µM | TGI (HOP-92 NSCLC): > 100 µM | TGI (HCT-15 colon): 73.5 µM | TGI (MALME-3M melanoma): 40.6 µM

CC(CO)C1C[C@H](O)[C@@]2(C)CC(=O)C=C(CO)[C@@H]2C1 (stereo not given in full)
TGI (UACC-62 melanoma): > 100 µM | TGI (KM12 colon): > 100 µM | TGI (HL-60(TB) leukemia): > 100 µM | TGI (IGROV1 ovarian): > 100 µM | TGI (U251 CNS): > 100 µM | TGI (SW-620 colon): > 100 µM | TGI (CAKI-1 renal): > 100 µM | TGI (HOP-92 NSCLC): > 100 µM | TGI (HCT-15 colon): > 100 µM

N#Cc1c(N2CCCC2)ncn(Cc2ccccc2)c1=O
TGI (UACC-62 melanoma): > 100 µM | TGI (KM12 colon): > 100 µM | TGI (HL-60(TB) leukemia): > 100 µM | TGI (IGROV1 ovarian): > 100 µM | TGI (U251 CNS): > 100 µM | TGI (SW-620 colon): > 100 µM | TGI (HOP-92 NSCLC): > 100 µM | TGI (HCT-15 colon): > 100 µM | TGI (MALME-3M melanoma): > 100 µM

CCCCCCCCCCCCCCCCCCNc1ccn(C2OC(COP(=O)(O)OCC3OC(n4cc(C)c(=O)[nH]c4=O)CC3N=[N+]=[N-])C(O)C2O)c(=O)n1 (stereo not given)
TGI (UACC-62 melanoma): 36.4 µM | TGI (KM12 colon): 35 µM | TGI (IGROV1 ovarian): 42.5 µM | TGI (U251 CNS): 36.2 µM | TGI (SW-620 colon): 58.8 µM | TGI (CAKI-1 renal): 58.6 µM | TGI (HOP-92 NSCLC): > 100 µM | TGI (HCT-15 colon): 36.1 µM | TGI (MALME-3M melanoma): 32.1 µM

O=C(CCCCCCCCC(=O)N1C(=O)CC(=O)N(c2cccc(Cl)c2)C1=S)N1C(=O)CC(=O)N(c2cccc(Cl)c2)C1=S
TGI (UACC-62 melanoma): 84.3 µM | TGI (KM12 colon): > 100 µM | TGI (U251 CNS): > 100 µM | TGI (CAKI-1 renal): > 100 µM | TGI (HOP-92 NSCLC): 51.1 µM | TGI (HCT-15 colon): > 100 µM | TGI (MALME-3M melanoma): > 100 µM

O=C1/C(=C/c2ccccc2[N+](=O)[O-])N=C(c2ccccc2)N1C1Nc2cc3c(cc2S1)NC(N1C(=O)/C(=C/c2ccccc2[N+](=O)[O-])N=C1c1ccccc1)S3 (stereo not given)
TGI (KM12 colon): > 100 µM | TGI (HL-60(TB) leukemia): 96.2 µM | TGI (IGROV1 ovarian): > 100 µM | TGI (U251 CNS): > 100 µM | TGI (SW-620 colon): > 100 µM | TGI (CAKI-1 renal): > 100 µM | TGI (HOP-92 NSCLC): > 100 µM | TGI (HCT-15 colon): > 100 µM

COc1ccc(-c2c(N)n(-c3cccc(C(=O)O)c3)c(=O)c3cc([N+](=O)[O-])ccc23)cc1
TGI (UACC-62 melanoma): > 100 µM | TGI (KM12 colon): > 100 µM | TGI (HL-60(TB) leukemia): > 100 µM | TGI (IGROV1 ovarian): > 100 µM | TGI (U251 CNS): > 100 µM | TGI (SW-620 colon): > 100 µM | TGI (CAKI-1 renal): > 100 µM | TGI (HCT-15 colon): > 100 µM

Cc1cc(-c2nc3ccccc3s2)ccc1NC(=O)[C@H](C)N
TGI (UACC-62 melanoma): 29.1 µM | TGI (KM12 colon): 31.1 µM | TGI (IGROV1 ovarian): 23.4 µM | TGI (U251 CNS): 33.9 µM | TGI (SW-620 colon): 29 µM | TGI (CAKI-1 renal): 24 µM | TGI (HOP-92 NSCLC): 35.5 µM | TGI (HCT-15 colon): 37.1 µM | TGI (MALME-3M melanoma): 51.1 µM

COC(=O)/C=C/c1cc(O)c2c(c1)[C@H](C(=O)OC)[C@@H](c1ccc(O)c(O)c1)O2
TGI (UACC-62 melanoma): > 59.5 µM | TGI (KM12 colon): 14.5 µM | GI50 (HL-60(TB) leukemia): 0.0293 µM | TGI (HL-60(TB) leukemia): 0.0801 µM | TGI (IGROV1 ovarian): > 38.8 µM | TGI (U251 CNS): > 100 µM | TGI (SW-620 colon): > 100 µM | TGI (CAKI-1 renal): > 100 µM | TGI (HOP-92 NSCLC): > 94 µM | TGI (HCT-15 colon): > 100 µM

CC(=O)O[C@]12CCCC1C1(O)C(O)CCCC12 (stereo not given in full)
TGI (UACC-62 melanoma): > 100 µM | TGI (KM12 colon): > 100 µM | TGI (HL-60(TB) leukemia): > 100 µM | TGI (U251 CNS): > 100 µM | TGI (SW-620 colon): > 100 µM | TGI (HCT-15 colon): > 100 µM | TGI (MALME-3M melanoma): > 100 µM

COC(=O)c1cc(C#N)[nH]c1-c1ccc(C)s1
TGI (UACC-62 melanoma): > 100 µM | TGI (KM12 colon): > 100 µM | TGI (U251 CNS): > 100 µM | TGI (SW-620 colon): > 100 µM | TGI (CAKI-1 renal): > 100 µM | TGI (HOP-92 NSCLC): 82.1 µM | TGI (HCT-15 colon): > 100 µM

Cc1cn(CC2=NCC(C)(C)N2)c(=O)[nH]c1=O
TGI (UACC-62 melanoma): > 100 µM | TGI (IGROV1 ovarian): > 100 µM | TGI (U251 CNS): > 100 µM | TGI (SW-620 colon): > 100 µM | TGI (HOP-92 NSCLC): > 100 µM | TGI (HCT-15 colon): > 100 µM | TGI (MALME-3M melanoma): > 100 µM

O=C(c1ccccc1)c1ccc2nc(-c3c(Cl)c(Cl)c(Cl)c(Cl)c3C(=O)N/N=C/c3ccccc3)[nH]c2c1
TGI (KM12 colon): > 100 µM | TGI (HL-60(TB) leukemia): 73 µM | TGI (IGROV1 ovarian): > 100 µM | TGI (U251 CNS): > 100 µM | TGI (SW-620 colon): > 100 µM | TGI (CAKI-1 renal): > 100 µM | TGI (HOP-92 NSCLC): > 100 µM | TGI (HCT-15 colon): > 100 µM | TGI (MALME-3M melanoma): 83 µM

CCc1ccc2[nH]c(O)c(-c3[nH]c4ccccc4c3N=O)c2c1
TGI (UACC-62 melanoma): 23 µM | TGI (KM12 colon): 4.51 µM | TGI (IGROV1 ovarian): 18.6 µM | TGI (U251 CNS): 21.5 µM | TGI (SW-620 colon): 89.9 µM | TGI (CAKI-1 renal): 19.8 µM | TGI (HCT-15 colon): 15.1 µM | TGI (MALME-3M melanoma): 21.6 µM
